# Measured values: patent US5328902A, “7-(substituted)-9-[(substituted glycyl)amido]-6-demethyl-6-deoxytetracyclines” (American Cyanamid Co., priority 1992, dated 1994)
# Where two headings read alike, the source gives them in different places.
# Legend:
# Format in all cases: cell-based
# E. coli UBMS 88-1 Tet B = assay: microbe, parasite or virus in culture
# E. coli J3272 Tet sens. = assay: MIC, agar dilution
# E. coli PRP1 Tet A = assay: microbe, parasite or virus in culture
# [1] = tested on: E. coli MC 4100 TNIOC Tet B; assay: microbe, parasite or virus in culture
# E. coli J3272 Tet C = assay: microbe, parasite or virus in culture
# E. coli UBMS 89-1 Tet M = assay: microbe, parasite or virus in culture
# [2] = tested on: E. coli UBMS 89-2 Tet sens.; assay: MIC, agar dilution
# E. coli J2175 = assay: MIC, agar dilution
# E. coli BAJ9003 IMP MUT = assay: microbe, parasite or virus in culture; conditions: Escherichia coli, BAJ9003IMPMUT, 18 h
# E. coli UBMS 90-4 Tet M = assay: microbe, parasite or virus in culture
# E. coli UBMS 90-5 = assay: MIC, agar dilution
# E. coli #311 (MP) = assay: MIC, agar dilution
# E. coli ATCC 25922 = assay: MIC, agar dilution
# E. coli J3272 Tet D = assay: microbe, parasite or virus in culture
# S. mariescens FPOR 8733 = assay: MIC, agar dilution
# [3] = tested on: Ps. acruginosa ATCC 27853; assay: MIC, agar dilution
# S. aureus NEMC 8769 = assay: MIC, agar dilution
# S. aureus UBMS 88-4 = assay: MIC, agar dilution
# [4] = tested on: S. aureus UBMS 88-5 Tet M; assay: microbe, parasite or virus in culture
# [5] = tested on: S. aureus UBMS 88-7 Tet K; assay: microbe, parasite or virus in culture
# [6] = tested on: S. aureus UBMS 90-1 Tet M; assay: microbe, parasite or virus in culture
# S. aureus UBMS 90-3 = assay: MIC, agar dilution
# [7] = tested on: S. aureus UBMS 90-2 Tet M; assay: microbe, parasite or virus in culture
# S. aureus IVES 2943 = assay: MIC, agar dilution
# S. aureus ROSE (MP) = assay: MIC, agar dilution
# S. aureus SMITH (MP) = assay: MIC, agar dilution; conditions: Staphylococcus aureus, 18 h
# S. aureus IVES 1 983 = assay: MIC, agar dilution
# S. aureus ATCC 29213 = assay: MIC, agar dilution
# [8] = tested on: S. hemolyticus AVHAH 88-3; assay: MIC, agar dilution
# Enterococcus 12201 = assay: MIC, agar dilution
# E. faecalis ATCC 29212 = assay: MIC, agar dilution
compound,measurement,setting,value
"CN(C)[C@@H]1C(=O)C(C(N)=O)=C(O)[C@@]2(O)C(=O)C3=C(O)c4c(O)cccc4[C@@](C)(O)[C@H]3C[C@@H]12 [N, Tetracycline]",MIC,"E. coli UBMS 88-1 Tet B; Escherichia coli, UBMS881TETB, 18 h",> 32 mg/L
same,MIC,"E. coli J3272 Tet sens.; Escherichia coli, 18 h, read-out: MIC",0.5 mg/L
same,MIC,"E. coli PRP1 Tet A; Escherichia coli, PRP1TETA, 18 h",32 mg/L
same,MIC,"[1]; Escherichia coli, 18 h",> 32 mg/L
same,MIC,"E. coli J3272 Tet C; Escherichia coli, J3272TETC, 18 h",> 32 mg/L
same,MIC,"E. coli UBMS 89-1 Tet M; Escherichia coli, UBMS891TETM, 18 h",8 mg/L
same,MIC,"[2]; Escherichia coli, 18 h",1 mg/L
same,MIC,"E. coli J2175; Escherichia coli, J2175, 18 h",1 mg/L
same,MIC,E. coli BAJ9003 IMP MUT,0.25 mg/L
same,MIC,"E. coli UBMS 90-4 Tet M; Escherichia coli, UBMS904TETM, 18 h",16 mg/L
same,MIC,"E. coli UBMS 90-5; Escherichia coli, UBMS905, 18 h, read-out: MIC",1 mg/L
same,MIC,"E. coli #311 (MP); Escherichia coli, 18 h",1 mg/L
same,MIC,"E. coli ATCC 25922; Escherichia coli, ATCC25922, 18 h",0.5 mg/L
same,MIC,"E. coli J3272 Tet D; Escherichia coli, J3272TETD, 18 h",> 32 mg/L
same,MIC,"S. mariescens FPOR 8733; 18 h, read-out: MIC",32 mg/L
same,MIC,[3]; 18 h,8 mg/L
same,MIC,"S. aureus NEMC 8769; Staphylococcus aureus, NEMC8769, 18 h",0.03 mg/L
same,MIC,"S. aureus UBMS 88-4; Staphylococcus aureus, UBMS884, 18 h",0.06 mg/L
same,MIC,"[4]; Staphylococcus aureus, UBMS885TETM, 18 h",> 32 mg/L
same,MIC,"[5]; Staphylococcus aureus, UBMS887TETK, 18 h",> 32 mg/L
same,MIC,"[6]; Staphylococcus aureus, UBMS901TETM, 18 h",32 mg/L
same,MIC,"S. aureus UBMS 90-3; Staphylococcus aureus, UBMS903, 18 h",0.06 mg/L
same,MIC,"[7]; Staphylococcus aureus, UBMS902TETM, 18 h",32 mg/L
same,MIC,"S. aureus IVES 2943; Staphylococcus aureus, IVES2943, 18 h",> 32 mg/L
same,MIC,"S. aureus ROSE (MP); Staphylococcus aureus, 18 h",> 32 mg/L
same,MIC,S. aureus SMITH (MP),0.06 mg/L
same,MIC,"S. aureus IVES 1 983; Staphylococcus aureus, IVES1983, 18 h",> 32 mg/L
same,MIC,"S. aureus ATCC 29213; Staphylococcus aureus, ATCC29213, 18 h",0.06 mg/L
same,MIC,"[8]; Streptococcus pyogenes, AVHAH883, 18 h",0.5 mg/L
same,MIC,"Enterococcus 12201; Enterococcus, 12201, 18 h",32 mg/L
same,MIC,"E. faecalis ATCC 29212; Enterococcus faecalis, ATCC29212, 18 h",8 mg/L
"[7S-(7alpha,10aalpha)]-N-[9-(Aminocarbonyl)-4,7-bis(dimethylamino)-5,5a,6,6a,7,10,10a,12-octahydro-1,8,10a,11-tetrahydroxy-10,12-dioxo-2-naphthacenyl]-4-thiomorpholineacetamide dihydrochloride [F]",MIC,"E. coli UBMS 88-1 Tet B; E. coli UBMS 88-1 Tet B, 18 hours at 35° C.",> 32 mg/L
same,MIC,E. coli J3272 Tet sens.,> 32 mg/L
same,MIC,E. coli PRP1 Tet A; E. coli PRP1 Tet A,> 32 mg/L
same,MIC,[1]; E. coli MC 4100 TNIOC Tet B,> 32 mg/L
same,MIC,E. coli J3272 Tet C; E. coli J3272 Tet C,> 32 mg/L
same,MIC,E. coli UBMS 89-1 Tet M; E. coli UBMS 89-1 Tet M,> 32 mg/L
same,MIC,[2]; E. coli UBMS 89-2 Tet sens.,> 32 mg/L
same,MIC,E. coli J2175; E. coli J2175,> 32 mg/L
same,MIC,E. coli UBMS 90-4 Tet M; E. coli UBMS 90-4 Tet M,> 32 mg/L
same,MIC,E. coli UBMS 90-5,> 32 mg/L
same,MIC,E. coli #311 (MP); E. coli #311 (MP),> 32 mg/L
same,MIC,E. coli ATCC 25922; E. coli ATCC 25922,32 mg/L
same,MIC,E. coli J3272 Tet D; E. coli J3272 Tet D,16 mg/L
same,MIC,S. mariescens FPOR 8733,> 32 mg/L
same,MIC,[3]; Ps. acruginosa ATCC 27853,> 32 mg/L
same,MIC,S. aureus UBMS 88-4; S. aureus UBMS 88-4,1 mg/L
same,MIC,[5]; S. aureus UBMS 88-7 Tet K,4 mg/L
same,MIC,[6]; S. aureus UBMS 90-1 Tet M,1 mg/L
same,MIC,S. aureus UBMS 90-3; S. aureus UBMS 90-3,1 mg/L
same,MIC,[7]; S. aureus UBMS 90-2 Tet M,1 mg/L
same,MIC,S. aureus IVES 2943; S. aureus IVES 2943,4 mg/L
same,MIC,S. aureus ROSE (MP); S. aureus ROSE (MP),8 mg/L
same,MIC,S. aureus IVES 1 983; S. aureus IVES 1 983,4 mg/L
same,MIC,S. aureus ATCC 29213; S. aureus ATCC 29213,1 mg/L
same,MIC,[8]; S. hemolyticus AVHAH 88-3,4 mg/L
same,MIC,Enterococcus 12201; Enterococcus 12201,1 mg/L
same,MIC,E. faecalis ATCC 29212; E. faecalis ATCC 29212,0.25 mg/L
"[4S-(4alpha,12aalpha)]-9-[(Bromoacetyl)amino]-4,7-bis(dimethylamino)-1,4,4a,5,5a,6, 11,12a-octahydro-3,10,12,12a-tetrahydroxy-1, 11-dioxo-2-naphthacenecarboxamide dihydrochloride",MIC,E. coli J3272 Tet sens.,16 mg/L
same,MIC,E. coli PRP1 Tet A; E. coli PRP1 Tet A,> 32 mg/L
same,MIC,[1]; E. coli MC 4100 TNIOC Tet B,> 32 mg/L
same,MIC,E. coli J3272 Tet C; E. coli J3272 Tet C,> 32 mg/L
same,MIC,E. coli UBMS 89-1 Tet M; E. coli UBMS 89-1 Tet M,4 mg/L
same,MIC,[2]; E. coli UBMS 89-2 Tet sens.,32 mg/L
same,MIC,E. coli J2175; E. coli J2175,32 mg/L
same,MIC,E. coli UBMS 90-5,16 mg/L
same,MIC,E. coli #311 (MP); E. coli #311 (MP),8 mg/L
same,MIC,E. coli ATCC 25922; E. coli ATCC 25922,16 mg/L
same,MIC,E. coli J3272 Tet D; E. coli J3272 Tet D,32 mg/L
same,MIC,S. mariescens FPOR 8733,> 32 mg/L
same,MIC,[3]; Ps. acruginosa ATCC 27853,> 32 mg/L
same,MIC,S. aureus NEMC 8769; S. aureus NEMC 8769,0.12 mg/L
same,MIC,[4]; S. aureus UBMS 88-5 Tet M,1 mg/L
same,MIC,[6]; S. aureus UBMS 90-1 Tet M,1 mg/L
same,MIC,S. aureus UBMS 90-3; S. aureus UBMS 90-3,0.5 mg/L
same,MIC,S. aureus IVES 1 983; S. aureus IVES 1 983,4 mg/L
same,MIC,S. aureus ATCC 29213; S. aureus ATCC 29213,0.5 mg/L
same,MIC,Enterococcus 12201; Enterococcus 12201,1 mg/L
same,MIC,E. faecalis ATCC 29212; E. faecalis ATCC 29212,0.5 mg/L
